Measurements taken from patent US6384186B2 (priority 1995, dated 2002).
Square brackets hold non-standard residues; d marks the D form. Peptide text beside a SMILES is read from it. NMeI = CC[CH](C)[CH](NC)C(=O)O; NMeV = CN[CH](C(=O)O)C(C)C; Sar = CNCC(=O)O

## CCC(C)C1NC(=O)C(C(C)C)N(C)C(=O)C(Cc2c[nH]c3ccccc23)NC(=O)CN(C)C(=O)C(C(C)CC)N(C)C(=O)C(C(C)C)NC(=O)CN(C)C(=O)C(C(C)CC)N(C)C(=O)C(C(C)C)N(C)C(=O)CN(C)C(=O)C(C(C)C)N(C)C(=O)C(C(C)C)N(C)C1=O (centres unmarked) [omphalotin] (cyclo([Sar][NMeV][NMeI][Sar]V[NMeI][Sar]W[NMeV]I[NMeV][NMeV]); configuration not given here)
Fusarium graminearum
  Efficacy of omphalotin: 23%
Pyricularia oryzae
  Efficacy of omphalotin: 70%
